Assays:
PAPSS2 = molecular target: T1, PAPSS2 (Homo sapiens, UniProt O95340); assay: thermal unfolding by CD at […] nm; format: binding; conditions: about 0.5 μM protein, pH 7.3, 1 mM MgCl2, 25 °C/h
T1 sequence (O95340 1-614): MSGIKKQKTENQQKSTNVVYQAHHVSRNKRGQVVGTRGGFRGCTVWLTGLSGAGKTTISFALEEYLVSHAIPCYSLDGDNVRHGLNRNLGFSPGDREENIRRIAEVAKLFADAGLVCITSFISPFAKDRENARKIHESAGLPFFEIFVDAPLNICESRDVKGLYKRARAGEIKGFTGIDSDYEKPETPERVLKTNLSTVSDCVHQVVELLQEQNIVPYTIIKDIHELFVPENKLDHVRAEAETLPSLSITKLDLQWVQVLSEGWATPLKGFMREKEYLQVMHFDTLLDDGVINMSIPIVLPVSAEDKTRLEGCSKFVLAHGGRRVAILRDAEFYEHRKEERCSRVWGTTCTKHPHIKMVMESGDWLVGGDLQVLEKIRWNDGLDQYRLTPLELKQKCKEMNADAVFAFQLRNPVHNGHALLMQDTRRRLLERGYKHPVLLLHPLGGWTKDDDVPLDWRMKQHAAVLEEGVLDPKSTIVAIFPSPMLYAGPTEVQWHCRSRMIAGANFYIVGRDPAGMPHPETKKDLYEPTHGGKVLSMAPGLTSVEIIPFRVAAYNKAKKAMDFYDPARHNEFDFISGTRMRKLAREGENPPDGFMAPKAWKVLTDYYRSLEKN

PAPSS1 = molecular target: T2, PAPSS1 (Homo sapiens, UniProt O43252); assay: thermal unfolding by CD at […] nm; format: binding; conditions: about 0.5 μM protein, pH 7.3, 1 mM MgCl2, 25 °C/h
T2 sequence (O43252 1-624): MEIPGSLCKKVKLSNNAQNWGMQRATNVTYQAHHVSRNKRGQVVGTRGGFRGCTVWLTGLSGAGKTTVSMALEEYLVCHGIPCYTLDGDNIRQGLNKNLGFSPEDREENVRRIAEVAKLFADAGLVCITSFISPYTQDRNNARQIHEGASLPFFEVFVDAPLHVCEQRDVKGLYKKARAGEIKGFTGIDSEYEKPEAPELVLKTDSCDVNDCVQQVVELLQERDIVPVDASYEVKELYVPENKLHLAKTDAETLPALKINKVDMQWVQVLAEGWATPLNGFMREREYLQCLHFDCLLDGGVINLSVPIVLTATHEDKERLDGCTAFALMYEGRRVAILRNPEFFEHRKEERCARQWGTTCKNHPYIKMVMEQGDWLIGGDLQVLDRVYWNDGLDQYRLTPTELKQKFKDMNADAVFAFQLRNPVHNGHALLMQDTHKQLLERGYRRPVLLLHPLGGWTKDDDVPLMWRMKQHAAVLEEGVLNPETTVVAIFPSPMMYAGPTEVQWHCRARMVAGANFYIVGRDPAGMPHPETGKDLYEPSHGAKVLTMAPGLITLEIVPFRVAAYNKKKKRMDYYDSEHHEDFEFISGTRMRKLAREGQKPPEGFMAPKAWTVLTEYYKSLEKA

## Nc1ncnc2c1ncn2[C@@H]1O[C@H](COP(=O)(O)OP(=O)(O)OP(=O)(O)O)[C@@H](O)[C@H]1O [ATP]
PAPSS2; 100 μM ATP
  thermal unfolding by CD at 225 nm: ATP had a slight stabilizing effect on PAPSS2

## Nc1ncnc2c1ncn2[C@@H]1O[C@H](COP(=O)(O)OS(=O)(=O)O)[C@@H](OP(=O)(O)O)[C@H]1O [PAPS]
PAPSS2; 50 μM PAPS
  thermal unfolding by CD at 225 nm: moderate effects on PAPSS1 and -S2 stability were observed for ADP and PAPS
PAPSS1; 50 μM PAPS
  thermal unfolding by CD at 225 nm: moderate effects on PAPSS1 and -S2 stability were observed for ADP and PAPS

## Nc1ncnc2c1ncn2[C@@H]1O[C@H](COP(=O)(O)OP(=O)(O)O)[C@@H](O)[C@H]1O [ADP]
PAPSS2; 100 μM ADP
  thermal unfolding by CD at 225 nm: moderate effects on PAPSS1 and -S2 stability were observed for ADP and PAPS
PAPSS1; 100 μM ADP
  thermal unfolding by CD at 225 nm: moderate effects on PAPSS1 and -S2 stability were observed for ADP and PAPS

From publication PMC3366831 (The Journal of Biological Chemistry, 2012)
